Reference: patent US6384015B1, “Selective lysis of malaria infected erythrocytes” (priority 1997, dated 2002)

System: P. falciparum (New Guinean isolate D10)
Assay: Parasitemia assay in P. falciparum infected human erythrocytes
Assay type: cell-based
Experimental: P. falciparum (New Guinean isolate D10) cultures were grown and maintained substantially as described in Trager et al. (1976) Science 193, 673-675. Human type O+ blood was obtained from healthy donors. Magainin 2 (Matsuzaki et al., 1995, supra) was made by solid phase peptide synthesis. Parasitemia assays were performed substantially as described in Pasvol et al (1978) Ann Trop Med Parasitol 72, 87-92 and Magowan et al. (1995) Blood 86, 3196-3204. […] Each group was done in triplicate and 7,500 erythrocytes were counted for each data point. […]
FIG. 1 provides a graphical representation of the data showing the inhibition of parasitemia in infected human erythrocytes over the foregoing time courses and concentrations. In the figure, ● represents data points for the untreated cells, ▪ represents data points for cells treated at 10 uM, ▴ at 25 uM, and ▾ at 50 uM.

Magainin 2
parasitemia (10 uM magainin 2, Day 1): 0.92 | parasitemia (10 uM magainin 2, Day 2): 1.88 | parasitemia (10 uM magainin 2, Day 3): 2.40 | parasitemia (10 uM magainin 2, Day 4): 4.52 | parasitemia (25 uM magainin 2, Day 1): 0.41 | parasitemia (25 uM magainin 2, Day 2): 1.88 | parasitemia (25 uM magainin 2, Day 3): 1.61 | parasitemia (25 uM magainin 2, Day 4): 3.68 | parasitemia (50 uM magainin 2, Day 1): 0.52 | parasitemia (50 uM magainin 2, Day 2): 1.43 | parasitemia (50 uM magainin 2, Day 3): 1.96 | parasitemia (50 uM magainin 2, Day 4): 2.87 | inhibition of parasitemia in infected human erythrocytes (10, 25 and 50 uM, over the time course): dose and time dependent inhibitions of parasitemia | selective lysis of infected versus non-infected erythrocytes (P. falciparum infected blood-borne human erythrocytes, Examples 1 and 2): particular effective at selectively lysing P. falciparum infected blood-borne human erythrocytes as compared with non-infected cells
